Assay results published in article PMC4680857, “Rat and human STINGs profile similarly towards anticancer/antiviral compounds” (Scientific Reports, 2015).
Numbering of substitutions follows the chain as printed. Where two headings read alike, the source gives them in different places.

Legend:
[1] = tested on: hSTING haplotypes with residue 230 mutations; test: IFN-β luciferase assay, residue 230 mutations in hSTING haplotypes; assay type: cell-based, human; details: 2′3′-cGAMP stimulation (Fig. 5c)
[2] = target: T1, rSTING CTD (residues 155–341) (Rattus norvegicus, UniProt F1M391); test: ITC binding to rSTING-CTD
T1 construct: rSTING (residues 155–341); His tag (TEV protease-cleavable) (N); made in house; host or cells: Escherichia coli BL21 (DE3)
T1 sequence (F1M391 155-341): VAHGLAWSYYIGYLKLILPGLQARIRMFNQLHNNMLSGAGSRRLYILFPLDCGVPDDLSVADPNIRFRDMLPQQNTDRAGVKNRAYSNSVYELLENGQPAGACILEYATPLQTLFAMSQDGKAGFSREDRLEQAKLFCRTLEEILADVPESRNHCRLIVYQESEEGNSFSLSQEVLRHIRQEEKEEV
Description: (§1) The plasimids of pET28a-rSTING^CTD, hSTING^CTD, mSTING^CTD and their variants were transformed into Escherichia coli BL21 (DE3) cells for overexpression. Cells were induced at 18 °C with 0.5 mM isopropyl β-d-1-thiogalactopyranoside for 20 hours, then collected and resuspended in buffer A (20 mM Tris-HCl, pH 8.0, 500 mM NaCl). Cells were subjected to ultrasonic lysis and clarified by centrifugation at 21,500 rpm for 90 minutes. Supernatants were loaded onto a HiTrap HP column (GE Healthcare, USA) equilibrated with buffer A. The contaminants were washed with buffer A containing 100 mM imidazole. The target proteins were eluted with buffer A containing 500 mM imidazole. Eluates were further purified by ion-exchange chromatography (HiTrap Q, GE Healthcare) and eluted with a linear sodium chloride gradient. Further purification steps were conducted through gel filtration (Superdex-200; GE Healthcare) equilibrated with 20 mM Tris–HCl, pH 8.0, 200 mM NaCl.
(§2) ITC measurements were performed with an iTC200 instrument (GE Healthcare) at 25 °C. […] A typical titration experiment involved 19 injections of ligand (2 mM) solution into the ITC cell containing protein (0.2 mM). The data were fitted to titration curves with Origin v7.0 (MicroCal).

rSTING T230I = target: T2, rSTING T230I (Rattus norvegicus, UniProt F1M391, T230I); test: ITC binding to rSTING T230I
T2 construct: rSTING (residues 155–341); His tag (TEV protease-cleavable) (N); made in house; host or cells: Escherichia coli BL21 (DE3)
T2 sequence (F1M391 155-341 T230I): T1 sequence (F1M391 155-341) with T76I
Description: as §1, §2

[3] = tested on: hSTING with A230 replaced by Ile or Leu; test: ITC binding to hSTING mutants (Fig. S6); design: species or system human
Description: as §2

hSTING G230I variant = tested on: hSTING G230I variant; design: method as in Gao et al. [35]; details: ref Gao et al. [35]; cited from earlier work
[4] = target: T3, hSTING CTD (residues 155–341) (Homo sapiens, UniProt Q86WV6, G230A/H232R); test: ITC binding to hSTING-CTD
T3 construct: hSTING (residues 155–341); His tag (TEV protease-cleavable) (N); made in house; host or cells: Escherichia coli BL21 (DE3)
T3 sequence (Q86WV6 155-341 G230A/H232R): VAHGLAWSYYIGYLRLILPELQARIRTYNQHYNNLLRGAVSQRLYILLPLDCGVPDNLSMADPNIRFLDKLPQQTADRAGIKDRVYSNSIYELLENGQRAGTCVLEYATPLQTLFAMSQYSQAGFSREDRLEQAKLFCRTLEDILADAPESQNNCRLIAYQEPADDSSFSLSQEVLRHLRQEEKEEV
Description: as §1, §2

rSTING T230L = target: T4, rSTING T230L (Rattus norvegicus, UniProt F1M391, T230L); test: ITC binding to rSTING T230L
T4 construct: rSTING (residues 155–341); His tag (TEV protease-cleavable) (N); made in house; host or cells: Escherichia coli BL21 (DE3)
T4 sequence (F1M391 155-341 T230L): T1 sequence (F1M391 155-341) with T76L
Excerpt: The C-terminal domain of rSTING (residues 155–341), hSTING (residues 155–341), mSTING (residues 154–340) for ITC measurements, hereafter named rSTING^CTD, hSTING^CTD, mSTING^CTD, were constructed by cloning into pET28a vector between Nde I and Xho I restriction sites, which contains N-terminal TEV protease-cleavable His tag. All point mutations were generated by PCR-based site-directed mutagenesis method with KOD FX as the polymerase.
The plasimids of pET28a-rSTING^CTD, hSTING^CTD, mSTING^CTD and their variants were transformed into Escherichia coli BL21 (DE3) cells for overexpression. Cells were induced at 18 °C with 0.5 mM isopropyl β-d-1-thiogalactopyranoside for 20 hours, then collected and resuspended in buffer A (20 mM Tris-HCl, pH 8.0, 500 mM NaCl). Cells were subjected to ultrasonic lysis and clarified by centrifugation at 21,500 rpm for 90 minutes. Supernatants were loaded onto a HiTrap HP column (GE Healthcare, USA) equilibrated with buffer A. The contaminants were washed with buffer A containing 100 mM imidazole. The target proteins were eluted with buffer A containing 500 mM imidazole. Eluates were further purified by ion-exchange chromatography (HiTrap Q, GE Healthcare) and eluted with a linear sodium chloride gradient. Further purification steps were conducted through gel filtration (Superdex-200; GE Healthcare) equilibrated with 20 mM Tris–HCl, pH 8.0, 200 mM NaCl. […]

| Structure (SMILES) | cGAMP-induced IFN-β production, differences between residue 230 mutations [1] | Kd [2] [nM] | binding affinity (in words) [2] | Kd ([2]; ITC, 25 °C, WT rSTING-CTD (T230)) [nM] | binding affinity (in words) ([2]; ITC, rSTING CTD) | ΔH (rSTING T230I; rSTING T230I) [kcal/mol] | ΔS (rSTING T230I; rSTING T230I) [cal/mol/deg] | binding affinity greater than that for WT rSTING (rSTING T230I; rSTING T230I vs WT rSTING) [fold] | binding by ITC (in words) [3] | response of STING variant to compound (hSTING G230I variant) | ΔH ([2]; ITC, rSTING T230(WT)) [kcal/mol] | ΔS ([2]; ITC, rSTING T230(WT)) [cal/mol/deg] | binding affinity (in words) [4] | ΔH (rSTING T230L) [kcal/mol] | ΔS (rSTING T230L) [cal/mol/deg] |
| --- | --- | --- | --- | --- | --- | --- | --- | --- | --- | --- | --- | --- | --- | --- | --- |
| Nc1nc2c(ncn2[C@@H]2O[C@@H]3COP(=O)(O)O[C@H]4[C@@H](O)[C@H](n5cnc6c(N)ncnc65)O[C@@H]4COP(=O)(O)O[C@@H]2[C@@H]3O)c(=O)[nH]1 [2′3′-cGAMP, cyclic GMP-AMP with 2′5′ and 3′5′ phosphodiester linkage] | no differences | 120 ± 30 | high binding affinities |  |  |  |  |  |  |  |  |  |  |  |  |
| Nc1nc2c(ncn2[C@@H]2O[C@@H]3COP(=O)(O)O[C@H]4[C@@H](O)[C@H](n5cnc6c(N)ncnc65)O[C@@H]4COP(=O)(O)O[C@H]3[C@H]2O)c(=O)[nH]1 [3′3′-cGAMP] |  |  |  | 550 ± 110 | high binding affinities |  |  |  |  |  |  |  |  |  |  |
| Cc1ccc2c(=O)c3cccc(CC(=O)O)c3oc2c1C [DMXAA, 5,6-Dimethylxanthenone 4-acetic acid] |  |  |  |  | none or only weak affinity | -3.86 ± 0.10 | 16.0 | 50 | detectable binding | can respond | -2.77 ± 0.09 | 11.7 | none or only weak affinity | -2.31 ± 0.07 | 16.6 |
